Laboratory results from publication PMC8722130 (Progress in biophysics and molecular biology, 2021).

Columns and labels:
[1] = target: uracil DNA-glycosylase (UDG) (Homo sapiens, UniProt P13051); assay: co-crystal structure; assay type: binding
[2] = target: human UDG (mitochondrial, 6xHis; XTAL Biostructures) (Homo sapiens, UniProt P13051-2 82-304); assay: thermal shift
human UDG (mitochondrial, 6xHis; XTAL Biostructures), sequence (P13051 91-313): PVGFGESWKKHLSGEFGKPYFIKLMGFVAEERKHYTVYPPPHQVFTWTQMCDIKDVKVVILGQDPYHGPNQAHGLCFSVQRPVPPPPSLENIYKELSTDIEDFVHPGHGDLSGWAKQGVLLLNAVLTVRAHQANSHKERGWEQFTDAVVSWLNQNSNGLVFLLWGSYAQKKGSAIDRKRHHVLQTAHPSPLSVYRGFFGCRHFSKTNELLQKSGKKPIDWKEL

uracil DNA-glycosylase (UDG), sequence (P13051 whole entry): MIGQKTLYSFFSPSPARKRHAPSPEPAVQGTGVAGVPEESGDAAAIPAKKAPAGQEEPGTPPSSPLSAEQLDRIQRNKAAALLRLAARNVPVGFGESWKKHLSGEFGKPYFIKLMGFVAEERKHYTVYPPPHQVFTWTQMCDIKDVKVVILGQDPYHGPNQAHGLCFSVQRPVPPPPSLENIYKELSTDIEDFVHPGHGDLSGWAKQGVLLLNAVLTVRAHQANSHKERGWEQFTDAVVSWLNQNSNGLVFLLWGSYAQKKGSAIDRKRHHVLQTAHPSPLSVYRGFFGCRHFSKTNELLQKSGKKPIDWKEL

O=C(O)C1=CC(=C(c2ccc(O)c(C(=O)O)c2)c2ccc(O)c(C(=O)O)c2)C=CC1=O [aurintricarboxylic acid]
Kd [1]: < 700 nM

GCACUUAAGAAUUGCAAUUCUUAAGUGC (structured_DNA, U in place of T (deoxyuridine, nine U:A pairs stated)) [uracil DNA hairpin]
binding result [2]: binds
